One test has as its target T1, hJNK1 (Homo sapiens, UniProt P45983).
T1 construct: His; purchased Upstate 14-327
As to the kind of experiment: hJNK1 | IC50. The following applies: read-out: hJNK1 | IC50. An excerpt:
(§1) Table printed on a drawing sheet, Fig. 4
Head of the field: hJNK1 | IC50
(§2) The patent's description of the figure: FIG. 4: Table illustrating the inhibitory efficacy of several JNK inhibitors according to the present invention, which are fusion proteins of a JNK inhibitory (poly-)peptide sequence and a transporter sequence. Given are the IC50 values in the nM range, the respective standard error of the mean (SEM) and the number of experiments performed (n).
(§3) First copying reader's note: The sheet prints no unit for IC50 (the description says nM range); decimal commas are used, except for three IC50 cells printed with a point (3820.81, 5340.33, 8130.86).
Where the first naming reader finds the target: head: hJNK1 | IC50

In the next test the target is hJNK3 (Homo sapiens, UniProt P53779). As to the kind of experiment: hJNK3 | IC50. As to conditions: read-out: hJNK3 | IC50.
hJNK3, sequence (P53779 whole entry, looked up): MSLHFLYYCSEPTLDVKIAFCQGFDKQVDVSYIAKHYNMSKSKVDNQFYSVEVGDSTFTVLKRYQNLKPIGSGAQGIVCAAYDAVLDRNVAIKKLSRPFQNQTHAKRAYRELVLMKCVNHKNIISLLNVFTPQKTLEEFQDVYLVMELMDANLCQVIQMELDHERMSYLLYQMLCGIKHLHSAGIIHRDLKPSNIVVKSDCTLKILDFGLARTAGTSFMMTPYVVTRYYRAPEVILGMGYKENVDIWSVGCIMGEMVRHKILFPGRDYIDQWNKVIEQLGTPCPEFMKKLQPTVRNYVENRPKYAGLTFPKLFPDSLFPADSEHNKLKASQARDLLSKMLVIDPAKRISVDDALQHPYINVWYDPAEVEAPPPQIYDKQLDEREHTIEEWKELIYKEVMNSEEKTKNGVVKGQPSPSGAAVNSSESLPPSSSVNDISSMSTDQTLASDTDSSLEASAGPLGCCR
Text: as §1
Head of the field: hJNK3 | IC50
as §2, §3
Where the first naming reader finds the target: head: hJNK3 | IC50

In another test the target is hJNK2 (Homo sapiens, UniProt P45984). As to the kind of experiment: hJNK2 | IC50.
hJNK2, sequence (P45984 whole entry, looked up): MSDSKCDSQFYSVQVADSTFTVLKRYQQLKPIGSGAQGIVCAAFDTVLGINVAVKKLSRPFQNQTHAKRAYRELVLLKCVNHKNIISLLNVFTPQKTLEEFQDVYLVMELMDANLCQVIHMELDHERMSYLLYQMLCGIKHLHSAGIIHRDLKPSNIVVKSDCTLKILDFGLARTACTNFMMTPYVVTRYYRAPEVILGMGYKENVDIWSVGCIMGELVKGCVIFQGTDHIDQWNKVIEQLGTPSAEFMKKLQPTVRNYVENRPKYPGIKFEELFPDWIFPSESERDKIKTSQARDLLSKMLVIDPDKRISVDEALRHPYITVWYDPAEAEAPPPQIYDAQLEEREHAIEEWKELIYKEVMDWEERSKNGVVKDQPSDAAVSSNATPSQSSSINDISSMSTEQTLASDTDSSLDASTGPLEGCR
Text: as §1
Head of the field: hJNK2 | IC50
as §2, §3
Where the first naming reader finds the target: head: hJNK2 | IC50

Like-named read-outs stand apart in the source and are kept apart here. Square brackets hold non-standard residues; d marks the D form. Peptide text beside a SMILES is read from it.

T1 sequence (P45983 whole entry, looked up): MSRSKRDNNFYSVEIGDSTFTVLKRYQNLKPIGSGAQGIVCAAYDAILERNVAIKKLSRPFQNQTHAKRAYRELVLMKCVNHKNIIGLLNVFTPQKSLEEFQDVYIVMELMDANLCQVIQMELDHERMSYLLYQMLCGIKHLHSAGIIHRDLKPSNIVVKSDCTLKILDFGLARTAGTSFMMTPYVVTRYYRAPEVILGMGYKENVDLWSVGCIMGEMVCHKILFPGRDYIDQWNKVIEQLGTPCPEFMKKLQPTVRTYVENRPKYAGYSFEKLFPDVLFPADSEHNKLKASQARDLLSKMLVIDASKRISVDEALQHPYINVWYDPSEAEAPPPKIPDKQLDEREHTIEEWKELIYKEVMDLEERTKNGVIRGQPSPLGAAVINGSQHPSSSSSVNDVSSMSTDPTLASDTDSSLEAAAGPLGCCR

What is called IC50 is the point on the concentration scale where inhibition reaches its midpoint. In the case of `CC(C)C[C@H](NC(=O)[C@@H](NC(=O)[C@@H](NC(=O)[C@@H]1CCCN1C(=O)[C@H](CCCNC(=N)N)NC(=O)[C@@H](CCCCN)NC(=O)[C@@H]1CCCN1C(=O)[C@H](CCCNC(=N)N)NC(=O)[C@@H](CCCNC(=N)N)NC(=O)[C@H](CCCNC(=N)N)NC(=O)[C@H](CCCNC(=N)N)NC(=O)[C@H](CCC(N)=O)NC(=O)[C@@H](CCCNC(=N)N)NC(=O)[C@H](CCCNC(=N)N)NC(=O)[C@H](CCCCN)NC(=O)[C@H](CCCCN)NC(=O)[C@H](N)CCCNC(=N)N)[C@@H](C)O)[C@@H](C)O)C(=O)N[C@H](CCCNC(=N)N)C(=O)N[C@@H](CC(C)C)C(=O)N[C@H](Cc1ccccc1)C(N)=O` [SEQ ID NO: 173, rKKRrQRRrRPkRPTTLrLf] (H-[dR]KKR[dR]QRR[dR]RP[dK]RPTTL[dR]L[dF]-NH2), the IC50 was 0.0884 µM on hJNK1, 0.0168 µM on hJNK3 and 0.03 µM on hJNK2 (read-out: hJNK2 | IC50).
The corresponding values for `CC(C)C[C@H](NC(=O)[C@H](CC(N)=O)NC(=O)[C@H](CC(C)C)NC(=O)[C@@H](NC(=O)[C@@H](NC(=O)[C@@H]1CCCN1C(=O)[C@H](CCCNC(=N)N)NC(=O)[C@@H](CCCNC(=N)N)NC(=O)[C@H](CCCNC(=N)N)NC(=O)[C@H](CCCNC(=N)N)NC(=O)[C@H](CCC(N)=O)NC(=O)[C@@H](CCCNC(=N)N)NC(=O)[C@H](CCCNC(=N)N)NC(=O)[C@H](CCCCN)NC(=O)[C@H](CCCCN)NC(=O)[C@H](N)CCCNC(=N)N)[C@@H](C)O)[C@@H](C)O)C(=O)N[C@H](Cc1ccccc1)C(N)=O` [SEQ ID NO: 174, rKKRrQRRrRPTTLNLf] (H-[dR]KKR[dR]QRR[dR]RPTTLNL[dF]-NH2) are 0.334 µM, 0.0631 µM and 0.12 µM.
`CC(C)C[C@H](NC(=O)[C@H](CC(N)=O)NC(=O)[C@H](CC(C)C)NC(=O)[C@@H](NC(=O)[C@@H](NC(=O)[C@@H]1CCCN1C(=O)[C@H](CCCNC(=N)N)NC(=O)[C@@H](CCCNC(=N)N)NC(=O)[C@H](CCCNC(=N)N)NC(=O)[C@H](CCC(N)=O)NC(=O)[C@@H](CCCNC(=N)N)NC(=O)[C@H](CCCNC(=N)N)NC(=O)[C@H](CCCCN)NC(=O)[C@H](CCCCN)NC(=O)[C@H](N)CCCNC(=N)N)[C@@H](C)O)[C@@H](C)O)C(=O)N[C@H](Cc1ccccc1)C(N)=O` [SEQ ID NO: 175, rKKRrQRrRPTTLNLf] (H-[dR]KKR[dR]QR[dR]RPTTLNL[dF]-NH2): the 50% inhibitory concentration (IC50) is 0.185 µM at hJNK1, 0.0606 µM on hJNK3 and 0.0823 µM on hJNK2 (read-out: hJNK2 | IC50).
The like results for `CC(C)C[C@H](NC(=O)[C@H](CC(N)=O)NC(=O)[C@H](CC(C)C)NC(=O)[C@@H](NC(=O)[C@@H](NC(=O)[C@@H]1CCCN1C(=O)[C@H](CCCNC(=N)N)NC(=O)[C@@H](CCCCN)NC(=O)[C@@H]1CCCN1C(=O)[C@H](CCCNC(=N)N)NC(=O)[C@@H](CCCNC(=N)N)NC(=O)[C@H](CCCNC(=N)N)NC(=O)[C@H](CCCNC(=N)N)NC(=O)[C@H](CCC(N)=O)NC(=O)[C@@H](CCCNC(=N)N)NC(=O)[C@H](CCCNC(=N)N)NC(=O)[C@H](CCCCN)NC(=O)[C@H](CCCCN)NC(=O)[C@H](N)CCCNC(=N)N)[C@@H](C)O)[C@@H](C)O)C(=O)N[C@H](Cc1c[nH]c2ccccc12)C(N)=O` [SEQ ID NO: 176, rKKRrQRRrRPkRPTTLNLw] (H-[dR]KKR[dR]QRR[dR]RP[dK]RPTTLNL[dW]-NH2) were, in that order, 0.131 µM, 0.0224 µM and 0.0403 µM.
Take `CC(C)C[C@H](NC(=O)[C@H](CC(=O)O)NC(=O)[C@@H](NC(=O)[C@@H]1CCCN1C(=O)[C@H](CCCNC(=N)N)NC(=O)[C@@H](CCCCN)NC(=O)[C@@H]1CCCN1C(=O)[C@H](CCCNC(=N)N)NC(=O)[C@@H](CCCNC(=N)N)NC(=O)[C@H](CCCNC(=N)N)NC(=O)[C@H](CCCNC(=N)N)NC(=O)[C@H](CCC(N)=O)NC(=O)[C@@H](CCCNC(=N)N)NC(=O)[C@H](CCCNC(=N)N)NC(=O)[C@H](CCCCN)NC(=O)[C@H](CCCCN)NC(=O)[C@H](N)CCCNC(=N)N)[C@@H](C)O)C(=O)N[C@@H](CC(N)=O)C(=O)N[C@@H](CC(C)C)C(=O)N[C@H](Cc1ccccc1)C(N)=O` [SEQ ID NO: 177, rKKRrQRRrRPkRPTDLNLf] (H-[dR]KKR[dR]QRR[dR]RP[dK]RPTDLNL[dF]-NH2): the IC50 stood at 0.355 µM at hJNK1, 0.0454 µM on hJNK3 and 0.0872 µM at hJNK2 (read-out: hJNK2 | IC50).
The like results for `CC(C)C[C@H](NC(=O)[C@@H](NC(=O)[C@@H](NC(=O)[C@@H]1CCCN1C(=O)[C@H](CCCNC(=N)N)NC(=O)[C@@H](CCCNC(=N)N)NC(=O)[C@H](CCCNC(=N)N)NC(=O)[C@H](CCCNC(=N)N)NC(=O)[C@H](CCC(N)=O)NC(=O)[C@@H](CCCNC(=N)N)NC(=O)[C@H](CCCNC(=N)N)NC(=O)[C@H](CCCCN)NC(=O)[C@H](CCCCN)NC(=O)[C@H](N)CCCNC(=N)N)[C@@H](C)O)[C@@H](C)O)C(=O)N[C@H](CCCNC(=N)N)C(=O)N[C@@H](CC(C)C)C(=O)N[C@H](Cc1c[nH]c2ccccc12)C(N)=O` [SEQ ID NO: 178, rKKRrQRRrRPTTLrLw] (H-[dR]KKR[dR]QRR[dR]RPTTL[dR]L[dW]-NH2) were, in that order, 0.329 µM, 0.0304 µM and 0.109 µM.
The corresponding values for `CC(C)C[C@H](NC(=O)[C@@H](NC(=O)[C@@H](NC(=O)[C@@H]1CCCN1C(=O)[C@H](CCCNC(=N)N)NC(=O)[C@@H](CCCNC(=N)N)NC(=O)[C@H](CCCNC(=N)N)NC(=O)[C@H](CCC(N)=O)NC(=O)[C@@H](CCCNC(=N)N)NC(=O)[C@H](CCCNC(=N)N)NC(=O)[C@H](CCCCN)NC(=O)[C@H](CCCCN)NC(=O)[C@H](N)CCCNC(=N)N)[C@@H](C)O)[C@@H](C)O)C(=O)N[C@H](CCCNC(=N)N)C(=O)N[C@@H](CC(C)C)C(=O)N[C@H](Cc1c[nH]c2ccccc12)C(N)=O` [SEQ ID NO: 179, rKKRrQRrRPTTLrLw] (H-[dR]KKR[dR]QR[dR]RPTTL[dR]L[dW]-NH2) are 0.249 µM, 0.0457 µM and 0.122 µM.
The like results for `CC(C)C[C@H](NC(=O)[C@H](CC(=O)O)NC(=O)[C@@H](NC(=O)[C@@H]1CCCN1C(=O)[C@H](CCCNC(=N)N)NC(=O)[C@@H](CCCNC(=N)N)NC(=O)[C@H](CCCNC(=N)N)NC(=O)[C@H](CCCNC(=N)N)NC(=O)[C@H](CCC(N)=O)NC(=O)[C@@H](CCCNC(=N)N)NC(=O)[C@H](CCCNC(=N)N)NC(=O)[C@H](CCCCN)NC(=O)[C@H](CCCCN)NC(=O)[C@H](N)CCCNC(=N)N)[C@@H](C)O)C(=O)N[C@H](CCCNC(=N)N)C(=O)N[C@@H](CC(C)C)C(=O)N[C@H](Cc1c[nH]c2ccccc12)C(N)=O` [SEQ ID NO: 180, rKKRrQRRrRPTDLrLw] (H-[dR]KKR[dR]QRR[dR]RPTDL[dR]L[dW]-NH2) were, in that order, 0.265 µM, 0.047 µM and 0.118 µM.
As for `CC(C)C[C@H](NC(=O)[C@H](CC(=O)O)NC(=O)[C@@H](NC(=O)[C@@H]1CCCN1C(=O)[C@H](CCCNC(=N)N)NC(=O)[C@@H](CCCNC(=N)N)NC(=O)[C@H](CCCNC(=N)N)NC(=O)[C@H](CCC(N)=O)NC(=O)[C@@H](CCCNC(=N)N)NC(=O)[C@H](CCCNC(=N)N)NC(=O)[C@H](CCCCN)NC(=O)[C@H](CCCCN)NC(=O)[C@H](N)CCCNC(=N)N)[C@@H](C)O)C(=O)N[C@H](CCCNC(=N)N)C(=O)N[C@@H](CC(C)C)C(=O)N[C@H](Cc1c[nH]c2ccccc12)C(N)=O` [SEQ ID NO: 181, rKKRrQRrRPTDLrLw] (H-[dR]KKR[dR]QR[dR]RPTDL[dR]L[dW]-NH2), the IC50 on hJNK1 was determined as 0.294 µM; on hJNK3, 0.0476 µM; on hJNK2 (read-out: hJNK2 | IC50), 0.16 µM.
The like results for `CC(C)C[C@H](NC(=O)[C@H](CC(N)=O)NC(=O)[C@H](CC(C)C)NC(=O)[C@@H](NC(=O)[C@@H](C)NC(=O)[C@@H]1CCCN1C(=O)[C@H](CCCNC(=N)N)NC(=O)[C@@H](CCCNC(=N)N)NC(=O)[C@H](CCCNC(=N)N)NC(=O)[C@H](CCCNC(=N)N)NC(=O)[C@H](CCC(N)=O)NC(=O)[C@@H](CCCNC(=N)N)NC(=O)[C@H](CCCNC(=N)N)NC(=O)[C@H](CCCCN)NC(=O)[C@H](CCCCN)NC(=O)[C@H](N)CCCNC(=N)N)[C@@H](C)O)C(=O)N[C@H](Cc1ccccc1)C(N)=O` [SEQ ID NO: 182, rKKRrQRRrRPaTLNLf] (H-[dR]KKR[dR]QRR[dR]RP[dA]TLNL[dF]-NH2) were, in that order, 1.68 µM, 0.0594 µM and 0.168 µM.
Compound `C[C@H](NC(=O)[C@H](C)NC(=O)[C@@H](C)NC(=O)[C@H](C)NC(=O)[C@H](C)NC(=O)[C@@H](CCCCN)NC(=O)[C@@H]1CCCN1C(=O)[C@H](CCCNC(=N)N)NC(=O)[C@@H](CCCNC(=N)N)NC(=O)[C@H](CCCNC(=N)N)NC(=O)[C@H](CCCNC(=N)N)NC(=O)[C@H](CCC(N)=O)NC(=O)[C@@H](CCCNC(=N)N)NC(=O)[C@H](CCCNC(=N)N)NC(=O)[C@H](CCCCN)NC(=O)[C@H](CCCCN)NC(=O)[C@H](N)CCCNC(=N)N)C(=O)N[C@@H](CC(N)=O)C(=O)N[C@@H](C)C(=O)N[C@H](Cc1ccccc1)C(N)=O` [compound 200, NH2 r K K R r Q R R r R P k A A a A A N A f CONH2] (H-[dR]KKR[dR]QRR[dR]RP[dK]AA[dA]AANA[dF]-NH2) showed a half-inhibitory concentration (IC50) on hJNK2 of 3.32 µM.
